{"source": "patent US20240270768A1", "about": "“A METHOD FOR OBTAINING L-GLUFOSINATE” (UPL LIMITED, priority 2021, published 2024)", "key": {"[1]": {"test": "Storage stability of L-glufosinate quinine tetrahydrate salt under standard conditions, analysed by HPLC", "assay_type": "physicochemical", "method": "HPLC method: • A) Column—Zorbax SB-C8 (250×4.6 mm i.d., 5 micron) • B) Mobile Phase—0.1% OPA: Acetonitrile (v/v) 40:60 • C) Flow—1.0 ml/min. • D) UV-Wavelength—230 nm • E) Injection volume—5 μl • F) Column temperature 40 °C • G) Run time—10 min\nL-glufosinate quinine tetrahydrate salt obtained in example 1 was stored under standard conditions (i.e. room temperature, normal pressure, air atmosphere) for 431 days."}, "[2]": {"conditions": "versus other L-glufosinate quinine hydrates (dihydrate, hexahydrate, dodecahydrate)"}}, "data": [{"smiles": "C=C[C@H]1CN2CC[C@H]1C[C@H]2[C@H](O)c1ccnc2ccc(OC)cc12.CP(=O)(O)CC[C@H](N)C(=O)O.O.O.O.O", "note": "[L-glufosinate quinine tetrahydrate salt]", "values": [{"measurement": "Duration of desirable stability on storage", "setting": "[1]; ambient conditions and air atmosphere", "value": "more than 430 days"}, {"measurement": "Moisture content after storage", "setting": "[1]; stored 431 days at room temperature, normal pressure, air atmosphere, initial value 12.04% (Example 1)", "value": 12.39, "unit": "%"}, {"measurement": "Loss on drying after storage", "setting": "[1]; stored 431 days at room temperature, normal pressure, air atmosphere, initial value 12.32% (Example 1)", "value": 12.27, "unit": "%"}, {"measurement": "L-glufosinate acid content (by HPLC) after storage", "setting": "[1]; stored 431 days at room temperature, normal pressure, air atmosphere, initial value 32.70% (Example 1)", "value": 33.13, "unit": "%"}, {"measurement": "Quinine content (by HPLC) after storage", "setting": "[1]; stored 431 days at room temperature, normal pressure, air atmosphere, initial value 54.34% (Example 1)", "value": 53.14, "unit": "%"}, {"measurement": "Storage stability, thermal stability and hygroscopicity compared to other hydrates", "setting": "[2]", "value": "improved storage stability, thermal stability and non-hygroscopicity as compared to other hydrates"}]}]}
